{
  "source": "patent US20230321055A1",
  "about": "“PREVENTIVE TREATMENT OF MIGRAINE” (priority 2022, published 2023)",
  "key": {"[1]": {"test_system": "participants with chronic migraine", "assay": "Same phase 3 study: safety and tolerability (adverse events, hepatic laboratory values), safety population", "assay_type": "in vivo, human", "method": "A phase 3, multicenter, randomized, double-blind, placebo-controlled, parallel-group study was carried out to evaluate the efficacy, safety, and tolerability of atogepant for the prevention of chronic migraine. A total of 778 participants from 133 sites in North America, Europe, and East Asia were randomized to one of three treatment arms (placebo, Atogepant 30 mg BID, and Atogepant 60 mg QD) in a 1:1:1 ratio.\nThis study comprised a 4-week screening and baseline period, a 12-week double blind treatment period, and a follow-up period of 4 additional weeks. The total study duration was 20 weeks. Participant disposition information and other relevant participant screening information may also be found in FIG. 19.\nThe overall safety profile of the study was consistent with safety findings observed in previous studies of atogepant in an episodic migraine population. […] For the safety population, the mean treatment duration for atogepant 30 mg BID, atogepant 60 mg QD, and placebo group were 80.1 days, 79.7 days, and 80.3 days, respectively. Serious adverse events occurred in 2.7% of patients treated with atogepant 60 mg QD and 1.6% of patients treated with atogepant 30 mg BID, compared to 1.2% of patients with placebo.\nTable 11 presents the number and percentage of participants with post-baseline hepatic-related laboratory parameter values of clinical interest. There were five participants who had post-baseline ALT or AST elevations (≥3*ULN), with 1/254 (0.4%), 2/255 (0.8%), and 2/257 (0.8%) in the placebo, atogepant 30 mg BID, and atogepant 60 mg QD groups, respectively. All cases in the atogepant dose groups were adjudicated as unlikely to be related to study drug. No participants met potential Hy's law criteria."}, "[2]": {"test_system": "participants with CM and moderate to severe symptoms of depression", "assay": "Same phase 3 study: analysis of participants with chronic migraine and moderate to severe symptoms of depression (PHQ-9 ≥10)", "assay_type": "in vivo, human", "design": "MSQ v2.1 RFR, Change from baseline, mean / MSQ v2.1 RFP, Change from baseline, mean / MSQ v2.1 EF, Change from baseline, mean / MSQ v2.1 RFR, MMRM, LS mean change / MSQ v2.1 RFP, MMRM, LS mean change / MSQ v2.1 EF, MMRM, LS mean change / HIT-6, Change from baseline, mean / HIT-6, MMRM, LS mean change: scale not given here", "details": "60 mg QD", "from_the_text": "Depression is a common comorbidity in people with migraine and is a risk factor for transformation of EM to CM. Depressive symptoms predict increases in headache-related disability and poor health-related quality of life (HRQoL) in people with migraine. Thus, trial data analysis was used to evaluate the effect of atogepant in participants with CM and baseline symptoms of moderate to severe depression. Specifically, analysis of trial data evaluated the impact of atogepant on change in monthly migraine days, ≥50% and ≥75% responder rates, change in MSQ v2.1 domain scores, and PGIC in participants with CM and moderate to severe depression symptomology. PHQ-9 is a validated, screening and diagnostic tool designed to improve the recognition rate of depression and facilitates diagnosis and treatment. A cut-off score of ≥10 was used to identify participants with moderate or severe depressive symptoms, to determine eligibility and as a continuous outcome to measure changes in depression. As disclosed hereinabove, the MSQ v2.1 is a 14-item measure of health-related quality of life evaluating impacts attributed to migraine over the past 4 weeks and comprises three domains: Role Function-Restrictive (RFR), Role Function-Preventive (RFP), and Emotional Function (EF). PGIC is a single item used to measure the subject's impression of overall change in migraine since the first dose of study intervention. Findings for the atogepant 60 mg QD dose are presented herein. […] For the endpoint change from baseline in monthly migraine days and each MSQ v2.1 domain score, the comparison between treatment groups was analyzed using a restricted maximum likelihood-based mixed model for repeated measures (MMRM). Logistic regression models were used to analyze PGIC responder at week 12 and ≥50% or 75% responder rates across 12-week double-blind treatment period. ANCOVA model was used to analyze change from baseline in PHQ-9 score at week 12.\nAnalysis of trial data evaluated the impact of atogepant on headache day reduction, moderate/severe headache days, acute medication use day reduction, impacts of headache and migraine as evaluated by the HIT-6 and AIM-D, and symptoms of moderate to severe depression as measured by PHQ-9. A cut-off score of ≥10 was used to identify participants with moderate or severe depressive symptoms, to determine eligibility and as a continuous outcome to measure changes in depressive symptoms. Findings for the atogepant 60 mg QD dose are presented here. Similar results for the 30 BID dose (excluded for simplicity). For endpoints other than PHQ-9, the comparison between treatment groups were analyzed using a restricted maximum likelihood-based mixed model for repeated measures (MMRM). ANCOVA model was used to analyze PHQ-9 related endpoints."}, "[3]": {"details": "30 mg BID, safety population (N = 257)"}, "[4]": {"details": "60 mg QD, safety population (N = 261)"}, "[5]": {"details": "across the 12-week treatment period, mITT, PHQ-9 ≥10 subgroup (n = 109)"}, "[6]": {"details": "mITT, PHQ-9 ≥10 subgroup (n = 109)"}, "[7]": {"details": "mITT, PHQ-9 ≥10 subgroup (n = 109), 12-week treatment period"}, "[8]": {"details": "week 12, mITT, PHQ-9 ≥10 subgroup (n = 109)"}},
  "data": [
    {"smiles": "C[C@@H]1[C@H](c2c(F)ccc(F)c2F)C[C@H](NC(=O)c2cnc3c(c2)C[C@@]2(C3)C(=O)Nc3ncccc32)C(=O)N1CC(F)(F)F", "note": "[Atogepant, (S)—N—((3S,5S,6R)-6-methyl-2-oxo-1-(2,2,2-trifluoroethyl)-5-(2,3,6-trifluorophenyl)piperidin-3-yl)-2′-oxo-1′,2′,5,7-tetrahydrospiro[cyclopenta[b]pyridine-6,3′-pyrrolo[2,3-b]pyridine]-3-carboxamide]", "values": [
      {"measurement": "Deaths", "setting": "[1]; [3]", "value": "0 n (%)"},
      {"measurement": "TEAE leading to treatment discontinuation", "setting": "[1]; [3]", "value": "13 (5.1) n (%)"},
      {"measurement": "TEAEs, participants", "setting": "[1]; [3]", "value": "145 (56.4) n (%)"},
      {"measurement": "TESAE Anal abscess", "setting": "[1]; [3]", "value": "1 (0.4) n (%)"},
      {"measurement": "TESAE Benign ovarian tumour", "setting": "[1]; [3]", "value": "1 (0.4) n (%)"},
      {"measurement": "TESAE COVID-19", "setting": "[1]; [3]", "value": "0 n (%)"},
      {"measurement": "TESAE COVID-19 pneumonia", "setting": "[1]; [3]", "value": "1 (0.4) n (%)"},
      {"measurement": "TESAE Cholelithiasis", "setting": "[1]; [3]", "value": "0 n (%)"},
      {"measurement": "TESAE Epicondylitis", "setting": "[1]; [3]", "value": "0 n (%)"},
      {"measurement": "TESAE Fall", "setting": "[1]; [3]", "value": "0 n (%)"},
      {"measurement": "TESAE Hip fracture", "setting": "[1]; [3]", "value": "0 n (%)"},
      {"measurement": "TESAE Nasal septum deviation", "setting": "[1]; [3]", "value": "0 n (%)"},
      {"measurement": "TESAE Plasma cell myeloma", "setting": "[1]; [3]", "value": "0 n (%)"},
      {"measurement": "Deaths", "setting": "[1]; [4]", "value": "0 n (%)"},
      {"measurement": "TESAE COVID-19", "setting": "[1]; [4]", "value": "1 (0.4) n (%)"},
      {"measurement": "TESAE COVID-19 pneumonia", "setting": "[1]; [4]", "value": "0 n (%)"},
      {"measurement": "serious adverse events considered related to study treatment by the investigator", "setting": "[1]; in vivo", "value": "None"},
      {"measurement": "AIM-D PDA, Change from baseline, mean", "setting": "[2]; [5]", "value": "−16.09"},
      {"measurement": "AIM-D PDA, LSMD vs placebo", "setting": "[2]; [5]", "value": "−5.91"},
      {"measurement": "AIM-D PDA, MMRM, LS mean change", "setting": "[2]; [5]", "value": "−13.50"},
      {"measurement": "AIM-D PI, Change from baseline, mean", "setting": "[2]; [5]", "value": "−13.84"},
      {"measurement": "AIM-D PI, LSMD vs placebo", "setting": "[2]; [5]", "value": "−4.63"},
      {"measurement": "AIM-D PI, MMRM, LS mean change", "setting": "[2]; [5]", "value": "−11.68"},
      {"measurement": "AIM-D PDA, Months 1-3, mean", "setting": "[2]; [6]", "value": 22.29},
      {"measurement": "AIM-D PI, Months 1-3, mean", "setting": "[2]; [6]", "value": 20.07},
      {"measurement": "Monthly Acute Medication Use Days, Post-baseline (Month 1-3), mean", "setting": "[2]; [6]", "value": 9.51},
      {"measurement": "Monthly Headache Days, Post-baseline (Month 1-3), mean", "setting": "[2]; [6]", "value": 15.24},
      {"measurement": "Monthly Migraine Days, Post-baseline (Month 1-3), mean", "setting": "[2]; [6]", "value": 12.90},
      {"measurement": "Monthly Moderate/Severe Headache Days, Post-baseline (Month 1-3), mean", "setting": "[2]; [6]", "value": 10.22},
      {"measurement": "PHQ-9, Week 12, mean", "setting": "[2]; [6]", "value": 8.81},
      {"measurement": "≥50% Responders, Odds ratio vs placebo", "setting": "[2]; [6]", "value": 3.70},
      {"measurement": "≥75% Responders, Odds ratio vs placebo", "setting": "[2]; [6]", "value": 13.64},
      {"measurement": "Monthly Acute Medication Use Days, Change from baseline, mean", "setting": "[2]; [7]", "value": "−7.52"},
      {"measurement": "Monthly Acute Medication Use Days, LSMD vs placebo", "setting": "[2]; [7]", "value": "−3.53"},
      {"measurement": "Monthly Acute Medication Use Days, MMRM, LS mean change", "setting": "[2]; [7]", "value": "−6.57"},
      {"measurement": "Monthly Headache Days, Change from baseline, mean", "setting": "[2]; [7]", "value": "−6.94"},
      {"measurement": "Monthly Headache Days, LSMD vs placebo", "setting": "[2]; [7]", "value": "−2.86"},
      {"measurement": "Monthly Headache Days, MMRM, LS mean change", "setting": "[2]; [7]", "value": "−6.52"},
      {"measurement": "Monthly Migraine Days, Change from baseline, mean", "setting": "[2]; [7]", "value": "−7.23"},
      {"measurement": "Monthly Migraine Days, LSMD vs placebo", "setting": "[2]; [7]", "value": "−3.04"},
      {"measurement": "Monthly Migraine Days, MMRM, LS mean change", "setting": "[2]; [7]", "value": "−6.71"},
      {"measurement": "Monthly Moderate/Severe Headache Days, Change from baseline, mean", "setting": "[2]; [7]", "value": "−7.34"},
      {"measurement": "Monthly Moderate/Severe Headache Days, LSMD vs placebo", "setting": "[2]; [7]", "value": "−2.68"},
      {"measurement": "Monthly Moderate/Severe Headache Days, MMRM, LS mean change", "setting": "[2]; [7]", "value": "−6.77"},
      {"measurement": "≥50% Responders, Odds ratio vs placebo", "setting": "[2]; mITT, PHQ-9 ≥10 subgroup (n = 109), listed as atogepant", "value": 3.7},
      {"measurement": "PGIC much better or very much better, OR vs placebo", "setting": "[2]; week 12, PHQ-9 ≥10 subgroup", "value": 2.52},
      {"measurement": "HIT-6, Change from baseline, mean", "setting": "[2]; [8]", "value": "−8.73"},
      {"measurement": "HIT-6, LSMD vs placebo", "setting": "[2]; [8]", "value": "−3.18"},
      {"measurement": "HIT-6, MMRM, LS mean change", "setting": "[2]; [8]", "value": "−8.37"},
      {"measurement": "HIT-6, Post-baseline, mean", "setting": "[2]; [8]", "value": 57.68},
      {"measurement": "MSQ v2.1 EF, Change from baseline, mean", "setting": "[2]; [8]", "value": 30.17},
      {"measurement": "MSQ v2.1 EF, LSMD vs placebo", "setting": "[2]; [8]", "value": 9.24},
      {"measurement": "MSQ v2.1 EF, MMRM, LS mean change", "setting": "[2]; [8]", "value": 28.19},
      {"measurement": "MSQ v2.1 EF, Post-baseline, mean", "setting": "[2]; [8]", "value": 70.79},
      {"measurement": "MSQ v2.1 RFP, Change from baseline, mean", "setting": "[2]; [8]", "value": 24.95},
      {"measurement": "MSQ v2.1 RFP, LSMD vs placebo", "setting": "[2]; [8]", "value": 8.89},
      {"measurement": "MSQ v2.1 RFP, MMRM, LS mean change", "setting": "[2]; [8]", "value": 22.91},
      {"measurement": "MSQ v2.1 RFP, Post-baseline, mean", "setting": "[2]; [8]", "value": 73.71},
      {"measurement": "MSQ v2.1 RFR, Change from baseline, mean", "setting": "[2]; [8]", "value": 28.04},
      {"measurement": "MSQ v2.1 RFR, LSMD vs placebo", "setting": "[2]; [8]", "value": 8.77},
      {"measurement": "MSQ v2.1 RFR, MMRM, LS mean change", "setting": "[2]; [8]", "value": 25.56},
      {"measurement": "MSQ v2.1 RFR, Post-baseline, mean", "setting": "[2]; [8]", "value": 61.53},
      {"measurement": "PHQ-9, ANCOVA, LS mean change", "setting": "[2]; [8]", "value": "−5.11"},
      {"measurement": "PHQ-9, Change from baseline, mean", "setting": "[2]; [8]", "value": "−5.61"},
      {"measurement": "PHQ-9, LSMD vs placebo", "setting": "[2]; [8]", "value": "−1.38"}
    ]}
  ]
}
